Measured values from the NIST ThermoML archive (doi:10.1021/acs.jced.8b00554).
Numbers after ± are expanded uncertainties.

Assay: xn = mol fraction of the nth substance listed
Details: Liquid, Vibrating tube method

CCCCCCCCC [nonane] + CCCO
mass density [kg/m3]
Details	343.15 K	353.15 K
100 kPa, x2 = 0.1231	–	666.99 ± 4.3
100 kPa, x2 = 0.2315	–	669.25 ± 4.3
100 kPa, x2 = 0.3229	–	671.68 ± 4.3
100 kPa, x2 = 0.4272	–	676.17 ± 4.3
100 kPa, x2 = 0.7021	–	697.1 ± 4.5
100 kPa, x2 = 0.8941	–	723.67 ± 4.6
1000 kPa, x2 = 0.3229	–	672.91 ± 4.3
1000 kPa, x2 = 0.4272	–	677.15 ± 4.3
1000 kPa, x2 = 0.7021	–	697.4 ± 4.5
1010 kPa, x2 = 0.1231	677.59 ± 4.3	667.83 ± 4.3
1010 kPa, x2 = 0.2315	–	670.69 ± 4.3
1010 kPa, x2 = 0.4272	689.57 ± 4.4	–
1010 kPa, x2 = 0.7021	711.27 ± 4.5	–
1010 kPa, x2 = 0.8941	737.45 ± 4.7	724.26 ± 4.6
1020 kPa, x2 = 0.3229	684.46 ± 4.4	–
2000 kPa, x2 = 0.1231	–	668.99 ± 4.3
2000 kPa, x2 = 0.2315	–	671.87 ± 4.3
2000 kPa, x2 = 0.3229	685.59 ± 4.4	–
2010 kPa, x2 = 0.1231	678.71 ± 4.3	–
2010 kPa, x2 = 0.2315	682.42 ± 4.4	–
2010 kPa, x2 = 0.4272	690.68 ± 4.4	678.31 ± 4.3
2010 kPa, x2 = 0.7021	712.38 ± 4.6	698.58 ± 4.5
2010 kPa, x2 = 0.8941	738.5 ± 4.7	–
2020 kPa, x2 = 0.3229	–	674.1 ± 4.3
2020 kPa, x2 = 0.8941	–	725.38 ± 4.7
3000 kPa, x2 = 0.3229	686.69 ± 4.4	–
3000 kPa, x2 = 0.4272	691.79 ± 4.4	–
3000 kPa, x2 = 0.7021	713.46 ± 4.6	–
3010 kPa, x2 = 0.1231	679.8 ± 4.3	–
3010 kPa, x2 = 0.2315	–	673.01 ± 4.3
3010 kPa, x2 = 0.3229	–	675.25 ± 4.3
3010 kPa, x2 = 0.4272	–	679.49 ± 4.3
3010 kPa, x2 = 0.7021	–	699.75 ± 4.5
3010 kPa, x2 = 0.8941	739.56 ± 4.7	726.49 ± 4.7
3020 kPa, x2 = 0.1231	–	670.15 ± 4.3
3020 kPa, x2 = 0.2315	683.53 ± 4.4	–
4000 kPa, x2 = 0.4272	–	680.67 ± 4.4
4010 kPa, x2 = 0.1231	–	671.29 ± 4.3
4010 kPa, x2 = 0.2315	684.63 ± 4.4	–
4010 kPa, x2 = 0.3229	687.78 ± 4.4	676.42 ± 4.3
4010 kPa, x2 = 0.7021	714.57 ± 4.6	700.94 ± 4.5
4010 kPa, x2 = 0.8941	–	727.63 ± 4.7
4020 kPa, x2 = 0.1231	680.88 ± 4.4	–
4020 kPa, x2 = 0.2315	–	674.2 ± 4.3
4020 kPa, x2 = 0.4272	692.9 ± 4.4	–
4020 kPa, x2 = 0.8941	740.61 ± 4.7	–
5000 kPa, x2 = 0.1231	681.97 ± 4.4	–
5000 kPa, x2 = 0.4272	–	681.83 ± 4.4
5000 kPa, x2 = 0.7021	715.67 ± 4.6	–
5010 kPa, x2 = 0.1231	–	672.43 ± 4.3
5010 kPa, x2 = 0.2315	–	675.32 ± 4.3
5010 kPa, x2 = 0.3229	688.88 ± 4.4	–
5010 kPa, x2 = 0.4272	694 ± 4.5	–
5010 kPa, x2 = 0.7021	–	702.12 ± 4.5
5010 kPa, x2 = 0.8941	741.67 ± 4.8	728.78 ± 4.7
5020 kPa, x2 = 0.2315	685.69 ± 4.4	–
5020 kPa, x2 = 0.3229	–	677.57 ± 4.3
6000 kPa, x2 = 0.1231	–	673.56 ± 4.3
6000 kPa, x2 = 0.4272	–	683.02 ± 4.4
6010 kPa, x2 = 0.1231	683.04 ± 4.4	–
6010 kPa, x2 = 0.2315	–	676.43 ± 4.3
6010 kPa, x2 = 0.3229	689.97 ± 4.4	678.73 ± 4.3
6010 kPa, x2 = 0.4272	695.09 ± 4.5	–
6010 kPa, x2 = 0.7021	716.75 ± 4.6	703.28 ± 4.5
6010 kPa, x2 = 0.8941	–	729.91 ± 4.7
6020 kPa, x2 = 0.2315	686.75 ± 4.4	–
6020 kPa, x2 = 0.8941	742.73 ± 4.8	–
7000 kPa, x2 = 0.2315	–	677.57 ± 4.3
7000 kPa, x2 = 0.3229	691.04 ± 4.4	–
7000 kPa, x2 = 0.8941	743.78 ± 4.8	–
7010 kPa, x2 = 0.2315	687.82 ± 4.4	–
7010 kPa, x2 = 0.3229	–	679.88 ± 4.4
7010 kPa, x2 = 0.4272	696.18 ± 4.5	–
7010 kPa, x2 = 0.8941	–	731.05 ± 4.7
7020 kPa, x2 = 0.1231	684.1 ± 4.4	674.7 ± 4.3
7020 kPa, x2 = 0.4272	–	684.19 ± 4.4
7020 kPa, x2 = 0.7021	717.84 ± 4.6	704.46 ± 4.5
8000 kPa, x2 = 0.2315	688.91 ± 4.4	–
8000 kPa, x2 = 0.3229	–	681.03 ± 4.4
8000 kPa, x2 = 0.7021	–	705.61 ± 4.5
8000 kPa, x2 = 0.8941	744.82 ± 4.8	–
8010 kPa, x2 = 0.1231	–	675.84 ± 4.3
8010 kPa, x2 = 0.3229	692.11 ± 4.4	–
8010 kPa, x2 = 0.4272	697.28 ± 4.5	685.36 ± 4.4
8010 kPa, x2 = 0.8941	–	732.17 ± 4.7
8020 kPa, x2 = 0.1231	685.16 ± 4.4	–
8020 kPa, x2 = 0.2315	–	678.73 ± 4.3
8020 kPa, x2 = 0.7021	718.92 ± 4.6	–
9000 kPa, x2 = 0.1231	–	676.94 ± 4.3
9000 kPa, x2 = 0.2315	–	679.85 ± 4.4
9010 kPa, x2 = 0.1231	686.2 ± 4.4	–
9010 kPa, x2 = 0.2315	689.96 ± 4.4	–
9010 kPa, x2 = 0.3229	693.2 ± 4.4	682.18 ± 4.4
9010 kPa, x2 = 0.4272	–	686.5 ± 4.4
9010 kPa, x2 = 0.7021	–	706.79 ± 4.5
9010 kPa, x2 = 0.8941	745.86 ± 4.8	733.3 ± 4.7
9020 kPa, x2 = 0.4272	698.35 ± 4.5	–
9020 kPa, x2 = 0.7021	720.01 ± 4.6	–
10000 kPa, x2 = 0.2315	690.99 ± 4.4	680.95 ± 4.4
10000 kPa, x2 = 0.4272	–	687.67 ± 4.4
10000 kPa, x2 = 0.7021	721.05 ± 4.6	–
10000 kPa, x2 = 0.8941	746.88 ± 4.8	–
10010 kPa, x2 = 0.1231	687.25 ± 4.4	678.03 ± 4.3
10010 kPa, x2 = 0.3229	694.26 ± 4.5	683.34 ± 4.4
10010 kPa, x2 = 0.7021	–	707.93 ± 4.5
10010 kPa, x2 = 0.8941	–	734.42 ± 4.7
10020 kPa, x2 = 0.4272	699.44 ± 4.5	–
11000 kPa, x2 = 0.3229	695.31 ± 4.5	–
11000 kPa, x2 = 0.4272	700.47 ± 4.5	–
11010 kPa, x2 = 0.1231	688.29 ± 4.4	–
11010 kPa, x2 = 0.7021	722.11 ± 4.6	–
11020 kPa, x2 = 0.2315	692.04 ± 4.4	–
11020 kPa, x2 = 0.8941	747.91 ± 4.8	–
12000 kPa, x2 = 0.3229	696.36 ± 4.5	–
12010 kPa, x2 = 0.1231	689.31 ± 4.4	–
12010 kPa, x2 = 0.2315	693.08 ± 4.4	–
12010 kPa, x2 = 0.4272	701.53 ± 4.5	–
12010 kPa, x2 = 0.8941	748.9 ± 4.8	–
12020 kPa, x2 = 0.7021	723.13 ± 4.6	–
13010 kPa, x2 = 0.4272	702.56 ± 4.5	–
13010 kPa, x2 = 0.8941	749.87 ± 4.8	–
13020 kPa, x2 = 0.1231	690.32 ± 4.4	–
13020 kPa, x2 = 0.2315	694.1 ± 4.5	–
13020 kPa, x2 = 0.3229	697.39 ± 4.5	–
13020 kPa, x2 = 0.7021	724.18 ± 4.6	–
14000 kPa, x2 = 0.1231	691.3 ± 4.4	–
14000 kPa, x2 = 0.3229	698.41 ± 4.5	–
14000 kPa, x2 = 0.8941	750.86 ± 4.8	–
14010 kPa, x2 = 0.2315	695.1 ± 4.5	–
14010 kPa, x2 = 0.7021	725.19 ± 4.7	–
14020 kPa, x2 = 0.4272	703.57 ± 4.5	–
15010 kPa, x2 = 0.1231	692.28 ± 4.4	–
15010 kPa, x2 = 0.4272	704.56 ± 4.5	–
15010 kPa, x2 = 0.7021	726.16 ± 4.7	–
15010 kPa, x2 = 0.8941	751.83 ± 4.8	–
15020 kPa, x2 = 0.2315	696.09 ± 4.5	–
15020 kPa, x2 = 0.3229	699.39 ± 4.5	–
16000 kPa, x2 = 0.8941	752.78 ± 4.8	–
16010 kPa, x2 = 0.1231	693.22 ± 4.5	–
16010 kPa, x2 = 0.7021	727.16 ± 4.7	–
16020 kPa, x2 = 0.2315	697.06 ± 4.5	–
16020 kPa, x2 = 0.3229	700.38 ± 4.5	–
16020 kPa, x2 = 0.4272	705.54 ± 4.5	–
17000 kPa, x2 = 0.1231	694.17 ± 4.5	–
17000 kPa, x2 = 0.3229	701.35 ± 4.5	–
17000 kPa, x2 = 0.4272	706.5 ± 4.5	–
17010 kPa, x2 = 0.7021	728.12 ± 4.7	–
17020 kPa, x2 = 0.2315	698.04 ± 4.5	–
17020 kPa, x2 = 0.8941	753.71 ± 4.8	–
18010 kPa, x2 = 0.1231	695.1 ± 4.5	–
18010 kPa, x2 = 0.2315	698.96 ± 4.5	–
18010 kPa, x2 = 0.7021	729.04 ± 4.7	–
18020 kPa, x2 = 0.3229	702.27 ± 4.5	–
18020 kPa, x2 = 0.4272	707.45 ± 4.5	–
18020 kPa, x2 = 0.8941	754.62 ± 4.8	–
19000 kPa, x2 = 0.2315	699.84 ± 4.5	–
19000 kPa, x2 = 0.3229	703.2 ± 4.5	–
19000 kPa, x2 = 0.7021	729.96 ± 4.7	–
19000 kPa, x2 = 0.8941	755.52 ± 4.8	–
19010 kPa, x2 = 0.1231	695.98 ± 4.5	–
19010 kPa, x2 = 0.4272	708.36 ± 4.5	–
20000 kPa, x2 = 0.4272	709.29 ± 4.5	–
20010 kPa, x2 = 0.1231	696.86 ± 4.5	–
20010 kPa, x2 = 0.2315	700.72 ± 4.5	–
20010 kPa, x2 = 0.3229	704.07 ± 4.5	–
20010 kPa, x2 = 0.7021	730.88 ± 4.7	–
20020 kPa, x2 = 0.8941	756.41 ± 4.8	–
